Numbers after ± are expanded uncertainties.
Test: xn = mol fraction of the nth substance listed
Conditions: 101 kPa, Liquid; for viscosity: Falling or rolling sphere viscometry; for mass density: Vibrating tube method

CCCCn1cc[n+](C)c1C.F[B-](F)(F)F [1-butyl-2,3-dimethylimidazolium tetrafluoroborate] + CC#N
Conditions | mass density [kg/m3] | viscosity [mPa·s]
298.15 K, x1 = 0.1118 | 919.74 ± 0.17 | 1.045 ± 0.013
298.15 K, x1 = 0.1536 | 957.71 ± 0.15 | –
298.15 K, x1 = 0.2247 | 1008.5 ± 0.14 | 2.637 ± 0.034
298.15 K, x1 = 0.3784 | 1079.62 ± 0.18 | 8.933 ± 0.12
298.15 K, x1 = 0.4601 | 1104.79 ± 0.16 | –
298.15 K, x1 = 0.5515 | 1127.21 ± 0.15 | 32.3 ± 0.41
298.15 K, x1 = 0.666 | 1149.45 ± 0.13 | 67.72 ± 0.96
298.15 K, x1 = 0.7581 | 1163.71 ± 0.12 | 143.9 ± 5.1
298.15 K, x1 = 0.8423 | 1174.52 ± 0.12 | 241.4 ± 13
298.15 K, x1 = 1 | 1193.19 ± 0.12 | 650 ± 56
303.15 K, x1 = 0.1118 | 915.06 ± 0.17 | 0.982 ± 0.012
303.15 K, x1 = 0.1536 | 953.22 ± 0.15 | –
303.15 K, x1 = 0.2247 | 1004.26 ± 0.14 | 2.438 ± 0.031
303.15 K, x1 = 0.3784 | 1075.69 ± 0.19 | 7.746 ± 0.1
303.15 K, x1 = 0.4601 | 1100.98 ± 0.16 | –
303.15 K, x1 = 0.5515 | 1123.51 ± 0.15 | 26.37 ± 0.33
303.15 K, x1 = 0.666 | 1145.88 ± 0.13 | 52.92 ± 0.56
303.15 K, x1 = 0.7581 | 1160.23 ± 0.12 | 108.2 ± 2.8
303.15 K, x1 = 0.8423 | 1171.09 ± 0.12 | 176.3 ± 7.5
303.15 K, x1 = 1 | 1189.8 ± 0.12 | 447 ± 33
313.15 K, x1 = 0.1118 | 905.7 ± 0.17 | 0.873 ± 0.011
313.15 K, x1 = 0.1536 | 944.25 ± 0.15 | –
313.15 K, x1 = 0.2247 | 995.79 ± 0.14 | 2.071 ± 0.026
313.15 K, x1 = 0.3784 | 1067.89 ± 0.19 | 5.997 ± 0.077
313.15 K, x1 = 0.4601 | 1093.41 ± 0.16 | –
313.15 K, x1 = 0.5515 | 1116.15 ± 0.14 | 18.33 ± 0.23
313.15 K, x1 = 0.666 | 1138.75 ± 0.12 | 34.34 ± 0.43
313.15 K, x1 = 0.7581 | 1153.24 ± 0.12 | 65.14 ± 0.85
313.15 K, x1 = 0.8423 | 1164.22 ± 0.11 | 102.2 ± 2.5
313.15 K, x1 = 1 | 1183.02 ± 0.11 | 232.9 ± 12
323.15 K, x1 = 0.1118 | 896.31 ± 0.18 | 0.783 ± 0.01
323.15 K, x1 = 0.1536 | 935.27 ± 0.15 | –
323.15 K, x1 = 0.2247 | 987.34 ± 0.14 | 1.781 ± 0.022
323.15 K, x1 = 0.3784 | 1060.12 ± 0.19 | 4.784 ± 0.061
323.15 K, x1 = 0.4601 | 1085.88 ± 0.16 | –
323.15 K, x1 = 0.5515 | 1108.85 ± 0.14 | 13.36 ± 0.17
323.15 K, x1 = 0.666 | 1131.67 ± 0.12 | 23.63 ± 0.3
323.15 K, x1 = 0.7581 | 1146.32 ± 0.11 | 42.26 ± 0.52
323.15 K, x1 = 0.8423 | 1157.4 ± 0.11 | 63.15 ± 0.79
323.15 K, x1 = 1 | 1176.38 ± 0.11 | 132.8 ± 4.4
333.15 K, x1 = 0.1118 | 886.87 ± 0.18 | 0.714 ± 0.009
333.15 K, x1 = 0.1536 | 926.27 ± 0.16 | –
333.15 K, x1 = 0.2247 | 978.89 ± 0.14 | 1.551 ± 0.02
333.15 K, x1 = 0.3784 | 1052.37 ± 0.19 | 3.914 ± 0.05
333.15 K, x1 = 0.4601 | 1078.37 ± 0.16 | –
333.15 K, x1 = 0.5515 | 1101.56 ± 0.14 | 10.11 ± 0.13
333.15 K, x1 = 0.666 | 1124.62 ± 0.12 | 17.06 ± 0.21
333.15 K, x1 = 0.7581 | 1139.41 ± 0.11 | 28.89 ± 0.36
333.15 K, x1 = 0.8423 | 1150.59 ± 0.11 | 41.76 ± 0.52
333.15 K, x1 = 1 | 1169.82 ± 0.11 | 81.53 ± 1.5
343.15 K, x1 = 0.1118 | 877.39 ± 0.18 | 0.572 ± 0.007
343.15 K, x1 = 0.1536 | 917.25 ± 0.16 | –
343.15 K, x1 = 0.2247 | 970.44 ± 0.15 | 1.369 ± 0.017
343.15 K, x1 = 0.3784 | 1044.64 ± 0.18 | 3.264 ± 0.041
343.15 K, x1 = 0.4601 | 1070.89 ± 0.16 | –
343.15 K, x1 = 0.5515 | 1094.31 ± 0.14 | 7.897 ± 0.099
343.15 K, x1 = 0.666 | 1117.6 ± 0.12 | 12.79 ± 0.16
343.15 K, x1 = 0.7581 | 1132.51 ± 0.11 | 20.7 ± 0.26
343.15 K, x1 = 0.8423 | 1143.79 ± 0.11 | 30 ± 0.37
343.15 K, x1 = 1 | 1163.26 ± 0.11 | 53.99 ± 0.56

CCCCn1cc[n+](C)c1C.F[B-](F)(F)F [1-butyl-2,3-dimethylimidazolium tetrafluoroborate] + C[S+](C)[O-]
Conditions | mass density [kg/m3] | viscosity [mPa·s]
298.15 K, x1 = 0.138 | 1128.27 ± 0.09 | 5.197 ± 0.064
298.15 K, x1 = 0.2292 | 1142.83 ± 0.1 | 9.384 ± 0.12
298.15 K, x1 = 0.3151 | 1153.4 ± 0.1 | 16.2 ± 0.2
298.15 K, x1 = 0.4079 | 1162.44 ± 0.11 | 28.31 ± 0.36
298.15 K, x1 = 0.5334 | 1172.17 ± 0.11 | 60.17 ± 0.72
298.15 K, x1 = 0.6374 | 1178.33 ± 0.11 | 108.3 ± 2.8
298.15 K, x1 = 0.7004 | 1181.74 ± 0.11 | 160.1 ± 6.3
298.15 K, x1 = 0.7952 | 1185.94 ± 0.11 | –
298.15 K, x1 = 0.8785 | 1189.03 ± 0.12 | 370.4 ± 25
298.15 K, x1 = 1 | 1193.19 ± 0.12 | 650 ± 56
303.15 K, x1 = 0.138 | 1123.85 ± 0.09 | 4.594 ± 0.057
303.15 K, x1 = 0.2292 | 1138.65 ± 0.1 | 8.077 ± 0.1
303.15 K, x1 = 0.3151 | 1149.37 ± 0.1 | 13.58 ± 0.17
303.15 K, x1 = 0.4079 | 1158.58 ± 0.11 | 23.32 ± 0.29
303.15 K, x1 = 0.5334 | 1168.48 ± 0.11 | 47.09 ± 0.59
303.15 K, x1 = 0.6374 | 1174.75 ± 0.11 | 82.19 ± 1.5
303.15 K, x1 = 0.7004 | 1178.22 ± 0.11 | 119.4 ± 3.5
303.15 K, x1 = 0.7952 | 1182.45 ± 0.11 | –
303.15 K, x1 = 0.8785 | 1185.53 ± 0.11 | 263.2 ± 15
303.15 K, x1 = 1 | 1189.8 ± 0.12 | 447 ± 33
313.15 K, x1 = 0.138 | 1115.07 ± 0.09 | 3.654 ± 0.045
313.15 K, x1 = 0.2292 | 1130.35 ± 0.09 | 6.142 ± 0.076
313.15 K, x1 = 0.3151 | 1141.4 ± 0.1 | 9.873 ± 0.12
313.15 K, x1 = 0.4079 | 1150.89 ± 0.1 | 15.99 ± 0.2
313.15 K, x1 = 0.5334 | 1161.12 ± 0.11 | 30.51 ± 0.38
313.15 K, x1 = 0.6374 | 1167.61 ± 0.11 | 50.32 ± 0.51
313.15 K, x1 = 0.7004 | 1171.2 ± 0.11 | 70.58 ± 1
313.15 K, x1 = 0.7952 | 1175.55 ± 0.11 | –
313.15 K, x1 = 0.8785 | 1178.68 ± 0.11 | 144.9 ± 5.2
313.15 K, x1 = 1 | 1183.02 ± 0.11 | 232.9 ± 12
323.15 K, x1 = 0.138 | 1106.3 ± 0.08 | 2.981 ± 0.037
323.15 K, x1 = 0.2292 | 1122.07 ± 0.09 | 4.831 ± 0.06
323.15 K, x1 = 0.3151 | 1133.47 ± 0.1 | 7.481 ± 0.093
323.15 K, x1 = 0.4079 | 1143.24 ± 0.1 | 11.64 ± 0.15
323.15 K, x1 = 0.5334 | 1153.77 ± 0.1 | 20.96 ± 0.26
323.15 K, x1 = 0.6374 | 1160.48 ± 0.1 | 33.05 ± 0.41
323.15 K, x1 = 0.7004 | 1164.2 ± 0.11 | 44.88 ± 0.56
323.15 K, x1 = 0.7952 | 1168.71 ± 0.11 | –
323.15 K, x1 = 0.8785 | 1171.96 ± 0.11 | 86.55 ± 1.7
323.15 K, x1 = 1 | 1176.38 ± 0.11 | 132.8 ± 4.4
333.15 K, x1 = 0.138 | 1097.56 ± 0.08 | 2.49 ± 0.031
333.15 K, x1 = 0.2292 | 1113.83 ± 0.09 | 3.906 ± 0.048
333.15 K, x1 = 0.3151 | 1125.56 ± 0.09 | 5.851 ± 0.072
333.15 K, x1 = 0.4079 | 1135.62 ± 0.1 | 8.806 ± 0.11
333.15 K, x1 = 0.5334 | 1146.46 ± 0.1 | 15.18 ± 0.19
333.15 K, x1 = 0.6374 | 1153.38 ± 0.1 | 22.96 ± 0.28
333.15 K, x1 = 0.7004 | 1157.22 ± 0.1 | 30.3 ± 0.37
333.15 K, x1 = 0.7952 | 1161.88 ± 0.1 | –
333.15 K, x1 = 0.8785 | 1165.23 ± 0.11 | 55.64 ± 0.59
333.15 K, x1 = 1 | 1169.82 ± 0.11 | 81.53 ± 1.5
343.15 K, x1 = 0.138 | 1088.84 ± 0.08 | 2.115 ± 0.026
343.15 K, x1 = 0.2292 | 1105.61 ± 0.09 | 3.23 ± 0.04
343.15 K, x1 = 0.3151 | 1117.7 ± 0.09 | 4.708 ± 0.058
343.15 K, x1 = 0.4079 | 1128.03 ± 0.1 | 6.868 ± 0.085
343.15 K, x1 = 0.5334 | 1139.19 ± 0.1 | 11.46 ± 0.14
343.15 K, x1 = 0.6374 | 1146.31 ± 0.1 | 16.7 ± 0.21
343.15 K, x1 = 0.7004 | 1150.26 ± 0.1 | 21.53 ± 0.27
343.15 K, x1 = 0.7952 | 1155.06 ± 0.1 | –
343.15 K, x1 = 0.8785 | 1158.52 ± 0.1 | 37.74 ± 0.46
343.15 K, x1 = 1 | 1163.26 ± 0.11 | 53.99 ± 0.56
353.15 K, x1 = 0.138 | 1080.12 ± 0.08 | 1.826 ± 0.022
353.15 K, x1 = 0.2292 | 1097.41 ± 0.08 | 2.724 ± 0.034
353.15 K, x1 = 0.3151 | 1109.86 ± 0.09 | 3.873 ± 0.048
353.15 K, x1 = 0.4079 | 1120.49 ± 0.09 | 5.501 ± 0.068
353.15 K, x1 = 0.5334 | 1131.96 ± 0.1 | 8.897 ± 0.11
353.15 K, x1 = 0.6374 | 1139.27 ± 0.1 | 12.73 ± 0.16
353.15 K, x1 = 0.7004 | 1143.34 ± 0.1 | 16.03 ± 0.2
353.15 K, x1 = 0.7952 | 1148.27 ± 0.1 | –
353.15 K, x1 = 0.8785 | 1151.83 ± 0.1 | 26.75 ± 0.33
353.15 K, x1 = 1 | 1156.71 ± 0.1 | 37.13 ± 0.46

From the NIST ThermoML archive (doi:10.1021/je3007474)
